Data on one molecule can be found in patent US6432403B1, “Antibodies to polypeptides having prenylcysteine carboxyl methlytransferase activity or inhibiting activity” (New York University, priority 1997, dated 2002).

As a reminder, the Km is the concentration of substrate that gives half-maximal velocity.

Test [1] addresses T1, endogenous neutrophil pcCMT (Homo sapiens, UniProt O60725).
T1 construct: endogenous in cells; host or cells: human peripheral blood neutrophils, light membranes (nitrogen cavitation, sucrose density centrifugation)
The test can be described thus: Carboxyl methylation of Rho GTPases by human neutrophil membranes. The following applies: stated identical to the recombinant enzyme; read-out: ED50 for endogenous neutrophil pcCMT. The test is classed as biochemical. As for the experimental part:
FIGS. 5A and 5B show the carboxyl methylation of ras-related GTPases by COS-1 cell membranes expressing ectopic human pcCMT. In FIG. 5A, neutrophil cytosol (CS) containing a mixture of Rho family proteins complexed with Rho-GDI (lanes 2, 3, 6, 7, 10, 11) or RhoA-GDI complexes partially purified from CS (lanes 4, 8, 12) were incubated with the methyl donor S-adenosyl-L-[methyl-^3H]methionine and light membranes derived from nitrogen cavitation of human neutrophils (lanes 1-4) or COS-1 cells transiently transfected with either human pcCMT (lanes 5-8) or vector alone (lanes 9-12). In some reactions (lanes 3, 7, 11) a competitive pcCMT inhibitor, AFC, was included. Reaction products were analyzed by SDS-PAGE and fluorography. The position of carboxyl methylated […] is indicated as is the position of protein phosphatase 2a (PP2a) that is methylated on a C-terminal leucine by an enzyme unrelated to pcCMT (Lee et al, 1993). […] Carboxyl methyltransferase activity was quantitated in membranes of COS-1 cells transfected with HL60 pcCMT using prenylcysteine analogs as defined substrates (Philips et al, 1995). […]

The target of another test is T2, human pcCMT (Homo sapiens, UniProt O60725).
T2 construct: The 3.6-kb full-length HL60 pcCMT cDNA and an 852-bp cDNA fragment comprising the ORF were subcloned into the eukaryotic expression vectors; expressed in transfected cells; host or cells: COS-1 cells (pCDM8 vector, DEAE-dextran transfection); light membranes after nitrogen cavitation
The test can be described thus: Carboxyl methylation of prenylcysteine analogs (AFC, AGGC) as defined substrates by the recombinant enzyme in COS-1 membranes. The test is classed as biochemical. As for the experimental part:
Prenylcysteine Carboxyl Methyltransferase Assays: COS-1 cells transfected with HL60 pcCMT or vector alone were harvested at 48 hours with 5 mM EDTA and subjected, in parallel with human neutrophils, to nitrogen cavitation and discontinuous sucrose density centrifugation as described (Philips et al, 1991). Light membranes were assayed for pcCMT activity qualitatively by S-adenosyl-L- [methyl-^3H]methionine labeling (SDS-polyacrylamide gel electrophoresis and flurography) of Rho GTPases partially purified from neutrophil cytosol and quantitatively by carboxyl methylation of N-acetyl-S-trans,trans-farnesyl-L-cysteine (AFC) (heptane partition, alkaline hydrolysis, and measurement of vapor phase [^3H]methanol) as described (Philips et al, 1995)
To determine whether the HL60 STE14 protein homolog has prenylcysteine carboxyl methyltransferase activity, the cDNA was subcloned into a mammalian expression vector PCDM8 (Invitrogen, San Diego, Calif.) and transiently overexpressed ectopically in COS-1 cells. Membranes prepared from these cells were used as a source of recombinant enzyme. Farnesylated Ras GTPases require detergent for extraction from membranes. Therefore, geranylgeranylated neutrophil cytosolic Rho accessory protein, guanine nucleotide dissociation inhibitor (GDI), were utilized as endogenous substrates in an in vitro assay (FIGS. 5A and 5B). Untransfected COS-1 cell membranes had little pcCMT activity toward Rho proteins compared with that of membranes derived from human neutrophils (FIG. 5A). Transfection with the HL60 cDNA conferred pcCMT activity toward Rho GTPases on COS-1 membranes, and this activity was blocked by the competitive pcCMT inhibitor, AFC, with an ED50 (10 μM) identical to that for endogenous neutrophil pcCMT. Carboxyl methylation of Rac2 and RhoA by HL60 pcCMT-transfected COS-1 cell membranes was enhanced by guanosine 5′-3-O-(thio)triphosphate (GTPγS) (FIG. 5B), similar to the activity observed in neutrophil membranes (Philips et al, 1993). Carboxyl methyltransferase activity was quantitated in membranes of COS-1 cells transfected with HL60 pcCMT using prenylcysteine analogs as defined substrates (Philips et al, 1995). Untransfected COS-1 cell membranes had […] (n=5) of the pcCMT specific activity of neutrophil membranes toward AFC.
The Michaelis constants of the recombinant enzyme, Km=7 μM for AFC and 0.6 μM for AGGC, were similar to those for the endogenous neutrophil enzyme (Pillinger et al, 1994). Thus, the cDNA described above encodes authentic human myeloid pcCMT.

SMILES strings stand for the structures.

T2 sequence (O60725 whole entry, the tested form may be a part): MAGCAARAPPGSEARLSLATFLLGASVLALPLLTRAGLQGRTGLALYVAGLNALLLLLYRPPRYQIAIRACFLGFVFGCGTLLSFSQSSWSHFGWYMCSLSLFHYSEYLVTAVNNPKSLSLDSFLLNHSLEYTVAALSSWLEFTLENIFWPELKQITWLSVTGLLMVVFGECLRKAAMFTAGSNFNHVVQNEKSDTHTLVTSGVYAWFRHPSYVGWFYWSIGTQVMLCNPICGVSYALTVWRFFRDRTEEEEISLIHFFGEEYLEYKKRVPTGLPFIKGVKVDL
T1 sequence (O60725 whole entry): as the sequence (O60725 whole entry, the tested form may be a part) above

As for `CC(=O)N[C@@H](CSC/C=C(\C)CC/C=C(\C)CCC=C(C)C)C(=O)O` [AFC, N-acetyl-S-trans,trans-farnesyl-L-cysteine], the EC50 in test [1] is 10 µM. Moreover, the “Increase in carboxyl methylation of the substrate on pcCMT transfection” value at human pcCMT (n=2) worked out at 20 fold. Moreover, the Km on human pcCMT (recombinant enzyme, read-out: Michaelis constant Km) worked out at 7 µM.
